Assay results taken from publication PMC7362284, “Pharmacokinetic and Lipidomic Assessment of the In Vivo Effects of Parishin A-Isorhynchophylline in Rat Migraine Models” (Journal of Analytical Methods in Chemistry, 2020).
Read-outs that look alike come from different tables or passages of the source. Each block holds one molecule with its values, some of them ahead of it.

Assay: Pharmacokinetic study in nitroglycerin-induced migraine model rats (plasma, HPLC-MS/MS)
Format: in vivo, rat
Details: for CL/F / MRT last / MRT inf / Vd/F / half-life: female, Sprague-Dawley, po; for CL/F: read-out: CL z/F (converted); for MRT last: read-out: MRT (0 − t); for MRT inf: read-out: MRT (0 − ∞); for Vd/F: read-out: V z/F; for half-life: read-out: t1/2z (converted); for clearance rate (CL z/F), administration-alone group higher than the coadministration group: single administration versus PI coadministration
Method: Healthy Sprague-Dawley (SD) female rats weighing 180 g ± 20 were provided by Hunan SJA Laboratory Animal Co., Ltd. (animal license number: SCXK (Xiang) 2016-0002). Rats underwent adaptive feeding for one week and were fasted for 12 h. Rats had open access to water throughout the study. For pharmacokinetic analysis, 18 SD rats were randomly divided into 3 groups and 0.4 mL of nitroglycerin (dosage: 10 mg/kg) was injected into the forehead to establish the migraine model. […] For blood sampling, 0.3 mL of blood was taken from the rat orbit prior to drug administration and 0, 5, 15, 30, and 45 min and 1, 2, 4, 6, 8, 10, 12, and 24 h after administration. These blood samples were collected into EP tubes coated with heparin sodium. After centrifugation at 4000 rmp for 10 min, supernatants were collected and stored at −80°C.
The mixture was vortexed for 3 min and centrifuged for 10 min at 13000 rpm. 200 μL of supernatants was collected for LC/MS analysis. For GAS and PA assessments, 50 μL of geniposide (IS: 350 ng/mL) and 250 μL of methanol were added to 50 μL of the plasma sample. The mixture was vortexed for 3 min and centrifuged for 10 min at 13000 rpm. 200 μL of supernatants was collected into centrifuge tubes, dried in nitrogen, and dissolved in 200 μL of 5% acetonitrile solution (95 : 5, v : v).
For pharmacokinetic studies, the AB Sciex Triple Quad™ 4500 was used for detection. […] A flow rate of 0.5 mL/min was used with an injection volume of 2 μL. The gradient elution was 0.0–1.2 min, 5% B; 1.2–6.0 min, 5–35% B; 6.0–8.5 min, 35–95% B; 8.5–9.0 min, 5% B; and 9.0–10.0 min, 5% B. Under mass spectrometry conditions, the ESI positive ion mode with multiple reaction monitoring (MRM) was used for detection using the following parameters: ion source temperature = 550°C; ion spray voltage = 4500 V; curtain gas (nitrogen) = 25 psi; atomizing gas (GS 1) = 50 psi; auxiliary gas (GS 2) = 50 psi. […] The IS was pyrrolidone hydrochloride, m/z 357.1–134.1 (DP: 85 V; CE: 35 eV). For GAS and PA, the column temperature was controlled at 40°C; phase A was 0.1% aqueous formic acid, and phase B was acetonitrile; flow rate was 0.5 mL/min; injection volume was 2 μL. The gradient elution was as follows: 0.0–1.2 min, 5% B; 1.2–8.0 min, 5–95% B; 8.0–9.0 min, 95–5% B; 9.0–10.0 min, 5% B; […]. For mass spectrometry, the ESI negative ion mode with MRM mode detection was employed. Mass spectrometry parameters were as follows: ion source temperature = 550°C; ion spray voltage = −4500 V; curtain gas (nitrogen) = 25 psi; atomizing gas (GS 1) = 50 psi; auxiliary gas (GS 2) = 50 psi. Ion pairs were as follows: GAS, m/z 331.1–123.0 (DP: −60 V; CE: −20 V); PA, m/z 995.1–726.9 (DP: −165 V; CE: −39 V). The IS was geniposide, m/z 433.0–225 (DP: −165 V; CE: −20 eV).
DAS 3.2.8 software was used to analyze the plasma concentrations in the different groups across all experimental time points. Time-concentration curves were drawn using Sigma Plot 10.0. For lipidomics, raw data were converted to the common (mzData) format using Agilent MassHunter Qualitative Analysis B.08.00 software (Agilent Technologies, USA). In the R software platform, the XCMS program was used to assess peak identification times, retention time correction, and automatic integration pretreatments. Data were subjected to IS and weight normalization. Visualization matrices containing the sample name, m/z-RT pair, and peak area were obtained. […] After editing, data matrices were imported into SIMCA-P 13.0 (Umetrics, Umea, Sweden), mean-centered, and scaled to Pareto variance. Multivariate analysis was then conducted.

[1] = Combine: PI coadministered (ISO 40 mg/kg, PA 372.4 mg/kg) intragastric, migraine model rats, plasma
[2] = PI coadministration versus single administration, migraine model rats
[3] = Single: PA alone 372.4 mg/kg intragastric, migraine model rats, plasma
[4] = rat, in vivo, Single: PA alone 372.4 mg/kg intragastric, migraine model rats, plasma
[5] = Single: ISO alone 40 mg/kg intragastric, migraine model rats, plasma

SMILES: OCc1ccc(O[C@@H]2O[C@H](CO)[C@@H](O)[C@H](O)[C@H]2O)cc1 [GAS, gastrodin]
AUC (0 − t) [1]: 12757.67 μg/L ∗ h
AUC (0 − ∞) [1]: 13028.09 μg/L ∗ h
C-max [1]: 3853.50 µg/L
T-max [1]: 1.08 h
AUC, coadministration higher than the administration-alone group [2]: 1.31 fold
MRT, coadministration higher than the single-administration group [2]: 1.84 fold
half-life (t1/2z), coadministration higher than the administration-alone group [2]: 2.79 fold
AUC (0 − t) [3]: 9934.28 μg/L ∗ h
AUC (0 − ∞) [3]: 9935.51 μg/L ∗ h
C-max [3]: 4082.17 µg/L
T-max [3]: 0.83 h
CL/F [4]: 640 mL/min/kg
MRT last [4]: 2.14 h
MRT inf [4]: 2.15 h
Vd/F [4]: 56.6 L/kg
half-life [4]: 1.02 h

SMILES: CC[C@H]1CN2CC[C@@]3(C(=O)Nc4ccccc43)[C@@H]2C[C@@H]1/C(=C\OC)C(=O)OC [ISO, isorhynchophylline]
AUC (0 − t) [1]: 1755.85 μg/L ∗ h
AUC (0 − ∞) [1]: 1768.51 μg/L ∗ h
C-max [1]: 867.07 µg/L
T-max [1]: 0.58 h
AUC, coadministration higher than the administration-alone group [2]: 1.31 fold
half-life (t1/2z), coadministration higher than the administration-alone group [2]: 1.99 fold
AUC (0 − t) [5]: 1340.01 μg/L ∗ h
AUC (0 − ∞) [5]: 1340.09 μg/L ∗ h
C-max [5]: 645.28 µg/L
T-max [5]: 0.54 h
CL/F (rat, in vivo, 40 mg/kg): 1480 mL/min/kg
MRT last (rat, in vivo, 40 mg/kg): 1.76 h
MRT inf (rat, in vivo, 40 mg/kg): 1.77 h
Vd/F (rat, in vivo, 40 mg/kg): 242 L/kg
half-life (rat, in vivo, 40 mg/kg): 1.9 h
clearance rate (CL z/F), administration-alone group higher than the coadministration group (migraine model rats): 3.15 fold

stability in plasma (rat, in vivo): unstable
stability in rats (rat, in vivo): unstable
SMILES: O=C(CC(O)(CC(=O)OCc1ccc(O[C@@H]2O[C@H](CO)[C@@H](O)[C@H](O)[C@H]2O)cc1)C(=O)OCc1ccc(O[C@@H]2O[C@H](CO)[C@@H](O)[C@H](O)[C@H]2O)cc1)OCc1ccc(O[C@@H]2O[C@H](CO)[C@@H](O)[C@H](O)[C@H]2O)cc1 [PA, parishin A]

SMILES: CC[C@H]1CN2CC[C@]3(C(=O)Nc4ccccc43)[C@@H]2C[C@@H]1/C(=C\OC)C(=O)OC [RHY, rhynchophylline]
AUC (0 − t) [1]: 412.82 μg/L ∗ h
AUC (0 − ∞) [1]: 455.57 μg/L ∗ h
C-max [1]: 94.10 µg/L
T-max [1]: 0.96 h
AUC, coadministration higher than the administration-alone group [2]: 1.44 fold
half-life (t1/2z), coadministration higher than the administration-alone group [2]: 3.46 fold
AUC (0 − t) [5]: 313.95 μg/L ∗ h
AUC (0 − ∞) [5]: 314.00 μg/L ∗ h
C-max [5]: 88.35 µg/L
T-max [5]: 0.63 h
CL/F (rat, in vivo, 40 mg/kg): 5530 mL/min/kg
MRT last (rat, in vivo, 40 mg/kg): 3.21 h
MRT inf (rat, in vivo, 40 mg/kg): 3.21 h
Vd/F (rat, in vivo, 40 mg/kg): 663 L/kg
half-life (rat, in vivo, 40 mg/kg): 1.63 h
clearance rate (CL z/F), administration-alone group higher than the coadministration group (migraine model rats): 3.16 fold
